What all share (assay type): in vivo
The subject of one experiment is Phaedon cochleariae. In words: Phaedon cochleariae spray test. Particulars: foliar, 168 h, Chinese cabbage leaf discs, after 7 days, read-out: efficacy (beetle larvae killed). The protocol:
Phaedon cochleariae—Spray Test Solvent: 78.0 parts by weight of acetone • • 1.5 parts by weight of dimethylformamide Emulsifier: alkylaryl polyglycol ether
(§1) To produce a suitable active compound formulation, 1 part by weight of active compound is dissolved using the stated parts by weight of solvent and made up with water containing an emulsifier concentration of 1000 ppm until the desired concentration is attained. To produce further test concentrations, the formulation is diluted with emulsifier-containing water.
Discs of Chinese cabbage leaves (Brassica pekinensis) are sprayed with an active compound formulation of the desired concentration and, after drying, populated with larvae of the mustard beetle (Phaedon cochleariae).
After 7 days, the efficacy in % is determined. 100% means that all the beetle larvae have been killed; 0% means that no beetle larvae have been killed.

For another experiment, the system named is Spodoptera frugiperda. In words: Spodoptera frugiperda spray test. The note with it: foliar, 168 h, maize leaf discs, after 7 days, read-out: efficacy (caterpillars killed). The protocol:
Spodoptera frugiperda—Spray Test Solvent: 78.0 parts by weight of acetone • • 1.5 parts by weight of dimethylformamide Emulsifier: alkylaryl polyglycol ether
as §1
Leaf discs of maize (Zea mays) are sprayed with an active compound formulation of the desired concentration and, after drying, populated with caterpillars of the fall armyworm (Spodoptera frugiperda).
After 7 days, the efficacy in % is determined. 100% means that all the caterpillars have been killed; 0% means that no caterpillar has been killed.

The next experiment concerns Ctenocephalides felis. In words: Ctenocephalides felis oral test. Particulars: 48 h, 100 ppm in citrated cattle blood, adult cat fleas, after 2 days, read-out: efficacy (kill). The method, then: Ctenocephalides felis—Oral Test
Solvent: Dimethyl Sulfoxide
To produce a suitable active compound formulation, 10 mg of active compound are mixed with 0.5 ml of dimethyl sulfoxide. Dilution with citrated cattle blood gives the desired concentration.
About 20 unfed adult cat fleas (Ctenocephalides felis) are placed into a chamber which is closed at the top and bottom with gauze. A metal cylinder whose bottom end is closed with parafilm is placed onto the chamber. The cylinder contains the blood/active compound formulation, which can be imbibed by the fleas through the parafilm membrane.
After 2 days, the kill in % is determined. 100% means that all of the fleas have been killed; 0% means that none of the fleas have been killed.

In the next experiment the test system is Diabrotica balteata. In words: Diabrotica balteata spray test. The note with it: 168 h, read-out: efficacy (wheat plant growth); for pest or weed control at 125 g/ha: 125 g/ha (=40 μg/cavity); for pest or weed control at 500 g/ha: 500 g/ha (=160 μg/cavity). The protocol:
Diabrotica balteata—Spray Test Solvent: 78 parts by weight of acetone • • 1.5 parts by weight of dimethylformamide Emulsifier: alkylaryl polyglycol ether
as §1
Pre-swollen wheat grains (Triticum aestivum) are incubated in a multiwell plate filled with agar and a little water for one day (5 seed grains per cavity). The germinated wheat grains are sprayed with an active compound formulation of the desired concentration. Subsequently, each cavity is infected with 10-20 beetle larvae of Diabrotica balteata.
After 7 days, the efficacy in % is determined. 100% means that all wheat plants have grown as in the untreated, uninfected control; 0% means that no wheat plant has grown.

[1] abbreviates: 100 g/ha (=32 μg/cavity), beetle larvae on wheat, after 7 days.
[2] abbreviates: beetle larvae on wheat, after 7 days.

This is an account of results in US20220289691A1, “5-AMINO-SUBSTITUTED PYRAZOLES AND TRIAZOLES AS PEST CONTROL AGENTS” (Bayer Aktiengesellschaft, priority 2019, published 2022).

Where two headings read alike, the source gives them in different places.

As to `CO[C@@H]1[C@@H](OC)[C@H](C)O[C@@H](OC(=O)Nc2ccc(-c3nc(NC(=O)C4CC4)n(-c4ccc(OC(F)(F)C(F)(F)F)cc4)n3)cc2)[C@@H]1OC` [Compound I-004], the pest or weed control at 100 g/ha in the experiment with Phaedon cochleariae came out at 100%. Also, the results for the pest or weed control at 500 g/ha in the experiment with Phaedon cochleariae (500 g/ha) and in the experiment on Spodoptera frugiperda were 100% and 83%, respectively.
Consider `CC(=O)Nc1nc(-c2ccc(C(C)=NNC(=S)Nc3ccccc3C)cc2)nn1-c1ccc(OC(F)(F)F)cc1` [Compound I-014], for which the pest or weed control at 100 g/ha in the experiment on Phaedon cochleariae and with Spodoptera frugiperda was 100% each time. Moreover, the pest or weed control at 100 ppm in the experiment with Ctenocephalides felis was 80%.
As for `CCC(=O)Nc1nc(-c2ccc(C=NNC(=S)Nc3ccccc3C(C)C)cc2)nn1-c1ccc(OC(F)(F)F)cc1` [Compound I-012], the pest or weed control at 100 g/ha in the experiment with Phaedon cochleariae and in the experiment with Spodoptera frugiperda was 100% in each case.
With `CNc1nc(-c2ccc(C=NNC(=S)Nc3ccccc3C(C)C)cc2C)nn1-c1ccc(OC(F)(F)F)cc1` [Compound I-119], the pest or weed control at 100 g/ha in the experiment on Spodoptera frugiperda and with Diabrotica balteata (setting [1]) was 100% each time.
Regarding `CNc1nc(-c2ccc(C=NN=C3SCC(=O)N3c3ccccc3C(C)C)cc2F)nn1-c1ccc(OC(F)(F)F)cc1` [Compound I-110], the pest or weed control at 100 g/ha with Spodoptera frugiperda and in the experiment with Diabrotica balteata (setting [1]) was 100% in each case.
Turning to `C=CCNc1nc(-c2ccc(NC(=O)N=C3SCC(=O)N3c3ccccc3C(C)C)cc2)nn1-c1ccc(OC(F)(F)F)cc1` [Compound I-086], the pest or weed control at 100 g/ha in the experiment on Spodoptera frugiperda and in the experiment on Diabrotica balteata (setting [1]) was 100% each time.
Turning to `CC(C)c1ccccc1NC(=S)NN=Cc1ccc(-c2nc(NCCC#N)n(-c3ccc(OC(F)(F)F)cc3)n2)cc1` [Compound I-094], the pest or weed control at 100 g/ha with Spodoptera frugiperda and in the experiment on Diabrotica balteata (setting [1]) was 100% in each case.
As to `CC(=O)NCCNc1nc(-c2ccc(NC(=O)N=C3SCC(=O)N3c3ccccc3C(C)C)cc2)nn1-c1ccc(OC(F)(F)F)cc1` [Compound I-033], the pest or weed control at 100 g/ha in the experiment on Spodoptera frugiperda is 100%. Moreover, in the experiment on Diabrotica balteata (setting [2]), the pest or weed control at 125 g/ha was found to be 100% and the pest or weed control at 500 g/ha was 100%.
Consider `COCCCNc1nc(-c2ccc(C=NNC(=S)Nc3ccccc3C(C)C)cc2)nn1-c1ccc(OC(F)(F)F)cc1` [Compound I-073], for which the pest or weed control at 100 g/ha in the experiment with Spodoptera frugiperda and in the experiment with Diabrotica balteata (setting [1]) was 100% throughout.
As to `CNc1nc(-c2ccc(C=NN=C3SCC(=O)N3c3ccccc3C(C)C)cc2)nn1-c1ccc(OC(F)(F)C(F)(F)F)cc1` [Compound I-064], the pest or weed control at 100 g/ha in the experiment on Spodoptera frugiperda and with Diabrotica balteata (setting [1]) was 100% in each case. Further, in the experiment with Diabrotica balteata (setting [2]), the pest or weed control at 500 g/ha amounted to 100%.
With `CCOC(=O)Nc1nc(-c2ccc(NC(=O)N=C3SCC(=O)N3c3ccccc3C(C)C)cc2)nn1-c1ccc(OC(F)(F)F)cc1` [Compound I-116], the pest or weed control at 100 g/ha in the experiment with Spodoptera frugiperda and in the experiment with Diabrotica balteata (in Triticum aestivum) was 100% throughout.
For `CC(C)c1ccccc1N1C(=O)CSC1=NC(=O)Nc1ccc(-c2nc(NC3CCOC3)n(-c3ccc(OC(F)(F)F)cc3)n2)cc1` (stereo not shown) [Compound I-045], the pest or weed control at 100 g/ha with Spodoptera frugiperda and with Diabrotica balteata (setting [1]) was 100% throughout. Moreover, the pest or weed control at 500 g/ha in the experiment on Spodoptera frugiperda and in the experiment with Diabrotica balteata (setting [2]) was 100% each time.
Turning to `CNc1nc(-c2ccc(C=NNC(=S)Nc3cc(OC)ccc3C(C)C)cc2)nn1-c1ccc(OC(F)(F)F)cc1` [Compound I-084], the pest or weed control at 100 g/ha with Spodoptera frugiperda and in the experiment with Diabrotica balteata (setting [1]) was 100% throughout.
Take `CNc1nc(-c2ccc(C=NN=C3SCCCN3c3ccccc3C(C)C)cc2)nn1-c1ccc(OC(F)(F)C(F)(F)F)cc1` [Compound I-126, 3-[4-({[3-(2-isopropylphenyl)-1,3-thiazinan-2-yliden]hydrazono}methyl)phenyl]-N-methyl-1-[4-(pentafluoroethoxy)phenyl]-1H-1,2,4-triazol-5-amine]: the pest or weed control at 100 g/ha in the experiment on Spodoptera frugiperda and with Diabrotica balteata (setting [1]) was 100% in each case.
Take `CC(C)c1ccccc1N1C(=O)CSC1=NC(=O)Nc1ccc(-c2nc(NC(=O)C(F)F)n(-c3ccc(OC(F)(F)F)cc3)n2)cc1` [Compound I-038]: the pest or weed control at 100 g/ha in the experiment on Spodoptera frugiperda stood at 100%; in the experiment with Diabrotica balteata (setting [1]), 80%. In the experiment with Diabrotica balteata (setting [2]), the pest or weed control at 500 g/ha was determined as 100%.
Regarding `CC(C)c1ccccc1N1C(=O)CSC1=NC(=O)Nc1ccc(-c2nc(NC3CCC3)n(-c3ccc(OC(F)(F)F)cc3)n2)cc1` [Compound I-041], the pest or weed control at 100 g/ha with Spodoptera frugiperda and in the experiment with Diabrotica balteata (setting [1]) was 100% throughout. For the same compound, in the experiment with Diabrotica balteata (setting [2]), the pest or weed control at 500 g/ha was determined as 100%.
With `CNc1nc(-c2ccc(C=NN=C3SCCC(=O)N3c3ccccc3C(C)C)cc2)nn1-c1ccc(OC(F)(F)F)cc1` [Compound I-113], the pest or weed control at 100 g/ha with Spodoptera frugiperda and in the experiment with Diabrotica balteata (setting [1]) was 100% each time.
As to `CC(C)Nc1nc(-c2ccc(NC(=O)N=C3SCC(=O)N3c3ccccc3C(C)C)cc2)nn1-c1ccc(OC(F)(F)F)cc1` [Compound I-043], the pest or weed control at 100 g/ha with Spodoptera frugiperda and with Diabrotica balteata (setting [1]) was 100% throughout. The pest or weed control at 500 g/ha in the experiment with Diabrotica balteata (setting [2]) stood at 100%.
Turning to `CNc1nc(-c2ccc(C=NN=c3scc(C)n3-c3ccccc3C(C)C)cc2)nn1-c1ccc(OC(F)(F)C(F)(F)F)cc1` [Compound I-127], the pest or weed control at 100 g/ha in the experiment with Spodoptera frugiperda and in the experiment with Diabrotica balteata (setting [1]) was 100% in each case.
Turning to `CNc1nc(-c2ccc(NC(=O)N=C3SCC(=O)N3c3ccccc3C(C)C)cc2)nn1-c1ccc(OC(F)(F)C(F)(F)F)cc1` [Compound I-027], the pest or weed control at 100 g/ha in the experiment with Spodoptera frugiperda came out at 100%. In addition, in the experiment on Diabrotica balteata (setting [2]), the pest or weed control at 125 g/ha is 100% and the pest or weed control at 500 g/ha stood at 100%.
As for `CC(C)c1ccccc1NC(=S)NN=Cc1ccc(-c2nc(NS(=O)(=O)C3CC3)n(-c3ccc(OC(F)(F)F)cc3)n2)cc1` [Compound I-023], the pest or weed control at 100 g/ha in the experiment with Spodoptera frugiperda was 100%. For the same compound, in the experiment on Diabrotica balteata (setting [2]), the pest or weed control at 125 g/ha was 100% and the pest or weed control at 500 g/ha is 100%.
As for `CNc1nc(-c2ccc(C=NN=C3SC(C)C(=O)N3c3ccccc3C(C)C)cc2)nn1-c1ccc(OC(F)(F)F)cc1` (stereo not shown) [Compound I-098], the pest or weed control at 100 g/ha in the experiment on Spodoptera frugiperda and with Diabrotica balteata (setting [1]) was 100% each time.
Consider `CC(=O)Nc1nc(-c2ccc(C=NN=C3SCC(=O)N3c3ccccc3C(C)C)cc2)nn1-c1ccc(OC(F)(F)C(F)(F)F)cc1` [Compound I-099], for which the pest or weed control at 100 g/ha in the experiment with Spodoptera frugiperda was determined as 100%; in the experiment on Diabrotica balteata (setting [1]) it was 80%.
Regarding `CC(=O)Nc1nc(-c2ccc(NC(=O)N=C3SCC(=O)N3c3ccccc3C(C)C)cc2)nn1-c1ccc(OC(F)(F)C(F)(F)F)cc1` [Compound I-054], the pest or weed control at 100 g/ha in the experiment on Spodoptera frugiperda was 100%. The pest or weed control at 500 g/ha in the experiment with Diabrotica balteata (setting [2]) stood at 100%.
On to `CNc1nc(-c2ccc(C=NNC(=S)Nc3ccccc3C(C)C)cc2C#N)nn1-c1ccc(OC(F)(F)F)cc1` [Compound I-123], for which the pest or weed control at 100 g/ha in the experiment on Spodoptera frugiperda and in the experiment with Diabrotica balteata (setting [1]) was 100% throughout.
Regarding `CCS(=O)(=O)Nc1nc(-c2ccc(C=NNC(=S)Nc3ccccc3C(C)C)cc2)nn1-c1ccc(OC(F)(F)F)cc1` [Compound I-022], the pest or weed control at 100 g/ha with Spodoptera frugiperda was 100%. Further, in the experiment with Diabrotica balteata (setting [2]), the pest or weed control at 125 g/ha amounted to 100% and the pest or weed control at 500 g/ha is 100%.
`CNc1nc(-c2c(F)cc(C=NN=C3SCC(=O)N3c3ccccc3C(C)C)cc2F)nn1-c1ccc(OC(F)(F)F)cc1` [Compound I-122]: the pest or weed control at 100 g/ha in the experiment with Spodoptera frugiperda and in the experiment with Diabrotica balteata (setting [1]) was 100% throughout.
As for `CC(=O)Nc1nc(-c2ccc(C=NNC(=S)Nc3ccccc3C(C)C)cc2)nn1-c1ccc(OC(F)(F)C(F)(F)F)cc1` [Compound I-096], the pest or weed control at 100 g/ha in the experiment with Spodoptera frugiperda and in the experiment on Diabrotica balteata (setting [1]) was 100% in each case.
Regarding `CC(C)c1ccccc1N1C(=O)CSC1=NN=Cc1ccc(-c2nc(NC3CCOCC3)n(-c3ccc(OC(F)(F)F)cc3)n2)cc1` [Compound I-087], the pest or weed control at 100 g/ha in the experiment with Spodoptera frugiperda and with Diabrotica balteata (setting [1]) was 100% each time.
